Experimental data published in ChEMBL document CHEMBL1201862, “PubChem BioAssay data set” (2004).
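Method: 48-hour compound exposure of cells in 96-well plates, five concentrations, linear interpolation of endpoints. At the GI50, growth is halved.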 Calls of active or inactive are those of the source. No stated cut-off is given here; in the data, active = GI50 up to about 1.1 µM and inactive = higher.

Tests used:
Experiment in all cases: NCI anticancer screen, dose series, 48 h
[1] = system: ACHN
[2] = system: NCI-H522
[3] = system: MDA-MB-231
[4] = system: BT-549
[5] = system: OVCAR-5
[6] = system: SK-MEL-28
[7] = system: HL-60
[8] = system: MCF7
[9] = system: HCT-15
[10] = system: Hs-578T
[11] = system: TK-10
[12] = system: NCI-H23
[13] = system: PC-3
[14] = system: HCT-116
[15] = system: A549
[16] = system: HOP-92
[17] = system: CCRF-CEM
[18] = system: NCI-H226
[19] = system: M14
[20] = system: CAKI-1

| Structure (SMILES) | GI50 [1] | GI50 [2] | GI50 [3] | GI50 [4] | GI50 [5] | GI50 [6] | GI50 [7] | GI50 [8] | GI50 [9] [µM] | GI50 [10] | GI50 [11] | GI50 [12] | GI50 [13] | GI50 [14] | GI50 [15] | GI50 [16] | GI50 [17] | GI50 [18] | GI50 [19] | GI50 [20] |
| --- | --- | --- | --- | --- | --- | --- | --- | --- | --- | --- | --- | --- | --- | --- | --- | --- | --- | --- | --- | --- |
| N[C@@H](CCC(=O)NC(Cc1ccccc1)C(=O)NCP(=O)(O)O)C(=O)O (some centres undefined) | > 100 µM (inactive) | > 100 µM (inactive) | > 100 µM (inactive) | 61.8 µM (inactive) | > 100 µM (inactive) | > 100 µM (inactive) | > 100 µM (inactive) | > 100 µM (inactive) | > 100 | > 100 µM (inactive) | > 100 µM (inactive) | > 100 µM (inactive) | > 100 µM (inactive) | > 100 µM (inactive) | > 100 µM (inactive) | – | – | – | – | – |
| Nc1nc(N)c(NC(=O)CCCO)c(=O)[nH]1 | > 100 µM (inactive) | 67.1 µM (inactive) | > 100 µM (inactive) | > 100 µM (inactive) | > 100 µM (inactive) | – | – | > 100 µM (inactive) | > 100 | > 100 µM (inactive) | > 100 µM (inactive) | > 100 µM (inactive) | > 100 µM (inactive) | > 100 µM (inactive) | > 100 µM (inactive) | > 100 µM (inactive) | > 100 µM (inactive) | > 100 µM (inactive) | > 100 µM (inactive) | > 100 µM (inactive) |
| CN1CSC(=S)N(c2cccc(C(F)(F)F)c2)C1 | 19 µM (inactive) | 16.4 µM (inactive) | – | 20.7 µM (inactive) | 18.6 µM (inactive) | 23.1 µM (inactive) | 25.5 µM (inactive) | 17.3 µM (inactive) | 18.7 | 28.9 µM (inactive) | 28.6 µM (inactive) | 17.9 µM (inactive) | 25.1 µM (inactive) | 34 µM (inactive) | 24.3 µM (inactive) | 18.9 µM (inactive) | 30.4 µM (inactive) | 24.3 µM (inactive) | 17.9 µM (inactive) | 26.4 µM (inactive) |
| CCOC(=O)c1nnsc1NC(=O)Nc1ccc(Cl)cc1 | > 100 µM (inactive) | 15.8 µM (inactive) | 20.7 µM (inactive) | > 100 µM (inactive) | > 100 µM (inactive) | > 100 µM (inactive) | – | – | 61.9 | 30.1 µM (inactive) | > 100 µM (inactive) | 32.8 µM (inactive) | 33 µM (inactive) | 25.4 µM (inactive) | 43 µM (inactive) | – | > 100 µM (inactive) | 36.6 µM (inactive) | 77.1 µM (inactive) | – |
| CCN1CC(C)Cn2c(=O)[nH]c3cc(Br)cc1c32 (centres undefined) | 13.1 µM (inactive) | – | 22.4 µM (inactive) | 4.1 µM (inactive) | 70.5 µM (inactive) | 35.7 µM (inactive) | 7.19 µM (inactive) | 17.3 µM (inactive) | 14.6 | 11 µM (inactive) | 25 µM (inactive) | 36.8 µM (inactive) | 30.9 µM (inactive) | 29.9 µM (inactive) | 25.6 µM (inactive) | – | 7.67 µM (inactive) | 11.9 µM (inactive) | 34.1 µM (inactive) | 13.9 µM (inactive) |
| CC1C2(C)OC(=N)C(C#N)(C(c3ccccc3)O2)C1(C#N)C#N (centres undefined) | 38.1 µM (inactive) | – | 16.9 µM (inactive) | 42.3 µM (inactive) | 25.5 µM (inactive) | > 10 µM (inactive) | 16.6 µM (inactive) | 21.2 µM (inactive) | 10.9 | 24.6 µM (inactive) | 36 µM (inactive) | 28.2 µM (inactive) | 22.8 µM (inactive) | 21.2 µM (inactive) | > 100 µM (inactive) | 12.6 µM (inactive) | 17.6 µM (inactive) | > 100 µM (inactive) | 13.9 µM (inactive) | 13.7 µM (inactive) |
| O=S1(=O)c2ccccc2N2CCCc3cc(Cl)cc1c32 | > 100 µM (inactive) | – | 37 µM (inactive) | > 100 µM (inactive) | > 100 µM (inactive) | > 100 µM (inactive) | > 100 µM (inactive) | > 100 µM (inactive) | > 100 | 27.4 µM (inactive) | > 10 µM (inactive) | – | > 100 µM (inactive) | > 100 µM (inactive) | > 100 µM (inactive) | – | > 100 µM (inactive) | > 100 µM (inactive) | > 100 µM (inactive) | 61.2 µM (inactive) |
| CCCC1C(=O)Nc2cccc3ncn(c23)C1=O (centres undefined) | > 100 µM (inactive) | – | > 100 µM (inactive) | > 100 µM (inactive) | > 100 µM (inactive) | > 100 µM (inactive) | > 100 µM (inactive) | > 100 µM (inactive) | > 100 | > 100 µM (inactive) | – | > 100 µM (inactive) | > 100 µM (inactive) | > 100 µM (inactive) | > 100 µM (inactive) | > 100 µM (inactive) | > 100 µM (inactive) | > 100 µM (inactive) | > 100 µM (inactive) | > 100 µM (inactive) |
| Cc1cc(S(=O)(=O)Nc2nc(N)nc(N3N=CCC3C)n2)c(SCC(=O)O)cc1Cl (centres undefined) | > 10 µM (inactive) | > 10 µM (inactive) | > 10 µM (inactive) | > 10 µM (inactive) | > 10 µM (inactive) | > 10 µM (inactive) | > 10 µM (inactive) | > 10 µM (inactive) | > 10 | > 10 µM (inactive) | > 10 µM (inactive) | > 10 µM (inactive) | > 10 µM (inactive) | > 10 µM (inactive) | > 10 µM (inactive) | – | > 10 µM (inactive) | > 10 µM (inactive) | > 10 µM (inactive) | > 10 µM (inactive) |
| CCOC(=O)c1c(NS(=O)(=O)c2ccc(Br)cc2)sc2c1CCCC2 | 3.93 µM (inactive) | 2.03 µM (inactive) | 7.29 µM (inactive) | 7.59 µM (inactive) | 6.71 µM (inactive) | 15.8 µM (inactive) | 6.18 µM (inactive) | 10.3 µM (inactive) | 7.35 | 4.43 µM (inactive) | 10.8 µM (inactive) | 6.34 µM (inactive) | 5.41 µM (inactive) | 7.52 µM (inactive) | 7.78 µM (inactive) | – | 5.51 µM (inactive) | 3.66 µM (inactive) | 4.8 µM (inactive) | 10.2 µM (inactive) |
| COc1cc2c(c(O)c1OC)C(=O)[C@@H]1CCC(=O)N1C2c1ccccc1 (some centres undefined) | 85.7 µM (inactive) | 28.5 µM (inactive) | – | > 100 µM (inactive) | > 100 µM (inactive) | > 100 µM (inactive) | 45.5 µM (inactive) | > 100 µM (inactive) | > 100 | 40.5 µM (inactive) | > 100 µM (inactive) | > 100 µM (inactive) | 31.8 µM (inactive) | 66.8 µM (inactive) | 59 µM (inactive) | – | 30.5 µM (inactive) | > 100 µM (inactive) | > 100 µM (inactive) | > 100 µM (inactive) |
| OC1(c2ccccc2)CC2CCC(C1)N2CCCC1(c2ccc(F)cc2)OCCO1 (centres undefined) | > 100 µM (inactive) | > 100 µM (inactive) | > 100 µM (inactive) | > 100 µM (inactive) | 79.3 µM (inactive) | 36.1 µM (inactive) | 6.78 µM (inactive) | > 100 µM (inactive) | > 100 | > 100 µM (inactive) | > 100 µM (inactive) | > 100 µM (inactive) | 22.5 µM (inactive) | > 100 µM (inactive) | > 100 µM (inactive) | – | 3.66 µM (inactive) | – | 21 µM (inactive) | > 100 µM (inactive) |
| Nc1ncnc2c1cnn2Cc1cn(COCC(O)CO)nn1 (centres undefined) | > 100 µM (inactive) | 16.1 µM (inactive) | > 100 µM (inactive) | > 100 µM (inactive) | > 100 µM (inactive) | > 100 µM (inactive) | > 100 µM (inactive) | > 100 µM (inactive) | > 100 | 14.4 µM (inactive) | > 100 µM (inactive) | > 100 µM (inactive) | > 100 µM (inactive) | > 100 µM (inactive) | > 100 µM (inactive) | > 100 µM (inactive) | > 100 µM (inactive) | – | > 100 µM (inactive) | > 100 µM (inactive) |
| CC(C)(C(=O)NN)c1ccccc1 | > 100 µM (inactive) | 56.2 µM (inactive) | > 100 µM (inactive) | > 100 µM (inactive) | > 100 µM (inactive) | > 100 µM (inactive) | > 100 µM (inactive) | > 100 µM (inactive) | > 100 | > 100 µM (inactive) | > 100 µM (inactive) | > 100 µM (inactive) | > 100 µM (inactive) | > 100 µM (inactive) | > 100 µM (inactive) | > 100 µM (inactive) | > 100 µM (inactive) | – | > 100 µM (inactive) | > 100 µM (inactive) |
| Cc1cc(OCc2nnc3n2N=C(c2cc(F)c(Cl)cc2Cl)/C(=C/c2ccc(-c4ccc(Cl)cc4)o2)S3)ccc1Cl | > 50 µM (inactive) | 28.8 µM (inactive) | 12.9 µM (inactive) | > 50 µM (inactive) | > 50 µM (inactive) | 24.5 µM (inactive) | > 50 µM (inactive) | 20.5 µM (inactive) | 34 | > 50 µM (inactive) | 41.2 µM (inactive) | 26.7 µM (inactive) | 14.6 µM (inactive) | 48.2 µM (inactive) | > 50 µM (inactive) | – | > 50 µM (inactive) | 36.3 µM (inactive) | > 50 µM (inactive) | 39.5 µM (inactive) |
| CC(C)OC1OC(CO)C(O)CC1n1cc(F)c(=O)[nH]c1=O (centres undefined) | > 100 µM (inactive) | 16.2 µM (inactive) | > 100 µM (inactive) | > 100 µM (inactive) | > 100 µM (inactive) | > 100 µM (inactive) | – | 46 µM (inactive) | > 100 | 86.3 µM (inactive) | > 100 µM (inactive) | > 100 µM (inactive) | > 100 µM (inactive) | > 100 µM (inactive) | > 100 µM (inactive) | > 100 µM (inactive) | – | > 100 µM (inactive) | > 100 µM (inactive) | 24.6 µM (inactive) |
